Details: Liquid, Vibrating wire viscometry

CCc1ccccc1 [ethylbenzene]
Details	viscosity [mPa·s]
253.21 K, 5000 kPa	1.259
253.22 K, 1000 kPa	1.211
253.22 K, 10000 kPa	1.311
253.22 K, 35000 kPa	1.593
253.23 K, 100 kPa	1.2
253.23 K, 20000 kPa	1.423
253.23 K, 25000 kPa	1.479
253.24 K, 15000 kPa	1.368
253.24 K, 30000 kPa	1.535
263.2 K, 10000 kPa	1.11
263.2 K, 15000 kPa	1.16
263.21 K, 5000 kPa	1.063
263.21 K, 20000 kPa	1.207
263.21 K, 25000 kPa	1.257
263.21 K, 35000 kPa	1.35
263.22 K, 100 kPa	1.021
263.22 K, 1000 kPa	1.028
263.22 K, 30000 kPa	1.304
273.15 K, 5000 kPa	0.9249
273.15 K, 20000 kPa	1.042
273.15 K, 30000 kPa	1.123
273.15 K, 35000 kPa	1.163
273.16 K, 25000 kPa	1.082
273.17 K, 1000 kPa	0.8919
273.18 K, 10000 kPa	0.9635
273.19 K, 15000 kPa	1.003
273.21 K, 100 kPa	0.8832
283.13 K, 1000 kPa	0.7784
283.14 K, 10000 kPa	0.8372
283.15 K, 20000 kPa	0.9017
283.16 K, 100 kPa	0.7737
283.16 K, 5000 kPa	0.8028
283.16 K, 30000 kPa	0.9641
283.16 K, 35000 kPa	0.9964
283.17 K, 15000 kPa	0.8678
283.17 K, 25000 kPa	0.9314
293.18 K, 5000 kPa	0.7056
293.2 K, 1000 kPa	0.6832
293.22 K, 25000 kPa	0.8173
293.23 K, 15000 kPa	0.7607
293.24 K, 10000 kPa	0.7327
293.24 K, 20000 kPa	0.7871
293.24 K, 30000 kPa	0.8447
293.26 K, 100 kPa	0.6786
293.26 K, 35000 kPa	0.8724
303.15 K, 100 kPa	0.6033
303.17 K, 1000 kPa	0.6074
303.17 K, 20000 kPa	0.6989
303.18 K, 5000 kPa	0.6268
303.18 K, 25000 kPa	0.7235
303.18 K, 35000 kPa	0.7739
303.19 K, 15000 kPa	0.6744
303.19 K, 30000 kPa	0.7502
303.2 K, 10000 kPa	0.6499
313.08 K, 30000 kPa	0.6722
313.09 K, 20000 kPa	0.6261
313.1 K, 10000 kPa	0.5812
313.1 K, 25000 kPa	0.649
313.1 K, 35000 kPa	0.694
313.11 K, 5000 kPa	0.5596
313.12 K, 100 kPa	0.5386
313.12 K, 1000 kPa	0.5427
313.12 K, 15000 kPa	0.6039
322.97 K, 100 kPa	0.4865
322.97 K, 20000 kPa	0.5648
322.98 K, 1000 kPa	0.4895
322.98 K, 5000 kPa	0.5042
322.98 K, 10000 kPa	0.5245
322.98 K, 15000 kPa	0.544
322.98 K, 25000 kPa	0.5856
322.98 K, 30000 kPa	0.606
322.98 K, 35000 kPa	0.6259
332.91 K, 100 kPa	0.4422
332.91 K, 5000 kPa	0.4595
332.92 K, 1000 kPa	0.4448
332.92 K, 10000 kPa	0.478
332.92 K, 15000 kPa	0.4961
332.92 K, 20000 kPa	0.5149
332.92 K, 25000 kPa	0.5331
332.92 K, 30000 kPa	0.5516
332.92 K, 35000 kPa	0.5706
342.8 K, 1000 kPa	0.4049
342.8 K, 10000 kPa	0.4356
342.8 K, 15000 kPa	0.4524
342.8 K, 20000 kPa	0.4691
342.8 K, 25000 kPa	0.4869
342.8 K, 30000 kPa	0.5045
342.8 K, 35000 kPa	0.5223
342.81 K, 100 kPa	0.4022
342.81 K, 5000 kPa	0.4186
352.72 K, 5000 kPa	0.3851
352.72 K, 20000 kPa	0.4335
352.72 K, 35000 kPa	0.4807
352.73 K, 100 kPa	0.3693
352.73 K, 1000 kPa	0.372
352.73 K, 10000 kPa	0.4003
352.73 K, 15000 kPa	0.4164
352.73 K, 25000 kPa	0.4495
352.73 K, 30000 kPa	0.4654
362.66 K, 100 kPa	0.339
362.66 K, 1000 kPa	0.3418
362.66 K, 5000 kPa	0.3538
362.66 K, 15000 kPa	0.3838
362.66 K, 20000 kPa	0.3986
362.66 K, 25000 kPa	0.4137
362.66 K, 30000 kPa	0.4289
362.67 K, 10000 kPa	0.3685
362.67 K, 35000 kPa	0.4429
372.59 K, 5000 kPa	0.3272
372.59 K, 10000 kPa	0.341
372.59 K, 15000 kPa	0.3541
372.59 K, 20000 kPa	0.3688
372.59 K, 25000 kPa	0.3822
372.59 K, 30000 kPa	0.3967
372.59 K, 35000 kPa	0.4108
372.6 K, 1000 kPa	0.3155
372.61 K, 100 kPa	0.3127

Cc1ccc(C)cc1 [1,4-dimethylbenzene]
Details	viscosity [mPa·s]
293.03 K, 15000 kPa	0.7277
293.03 K, 20000 kPa	0.7569
293.03 K, 25000 kPa	0.7883
293.03 K, 30000 kPa	0.8186
293.04 K, 100 kPa	0.6444
293.04 K, 1000 kPa	0.6494
293.04 K, 5000 kPa	0.672
293.04 K, 10000 kPa	0.6997
302.86 K, 100 kPa	0.5762
302.86 K, 1000 kPa	0.5804
302.87 K, 5000 kPa	0.5995
302.87 K, 10000 kPa	0.6244
302.88 K, 15000 kPa	0.6499
302.88 K, 20000 kPa	0.6747
302.88 K, 25000 kPa	0.7023
302.89 K, 30000 kPa	0.7274
312.76 K, 100 kPa	0.515
312.76 K, 1000 kPa	0.5186
312.76 K, 15000 kPa	0.5806
312.76 K, 20000 kPa	0.6027
312.76 K, 25000 kPa	0.6263
312.76 K, 30000 kPa	0.6494
312.77 K, 5000 kPa	0.5356
312.77 K, 10000 kPa	0.5575
322.62 K, 100 kPa	0.4653
322.63 K, 1000 kPa	0.4689
322.64 K, 5000 kPa	0.4833
322.64 K, 10000 kPa	0.5038
322.64 K, 15000 kPa	0.524
322.64 K, 20000 kPa	0.5442
322.64 K, 25000 kPa	0.5653
322.65 K, 30000 kPa	0.5861
332.57 K, 30000 kPa	0.5304
332.58 K, 100 kPa	0.4206
332.58 K, 1000 kPa	0.4237
332.58 K, 5000 kPa	0.4383
332.58 K, 10000 kPa	0.4564
332.58 K, 15000 kPa	0.4745
332.58 K, 20000 kPa	0.493
332.58 K, 25000 kPa	0.5109
342.27 K, 100 kPa	0.3815
342.27 K, 1000 kPa	0.3842
342.28 K, 5000 kPa	0.3977
342.28 K, 10000 kPa	0.4144
342.28 K, 20000 kPa	0.4482
342.29 K, 15000 kPa	0.4314
342.29 K, 25000 kPa	0.4649
342.29 K, 30000 kPa	0.4833
352.2 K, 5000 kPa	0.3634
352.2 K, 10000 kPa	0.3791
352.2 K, 15000 kPa	0.3945
352.2 K, 20000 kPa	0.4111
352.2 K, 25000 kPa	0.4263
352.2 K, 30000 kPa	0.4423
352.21 K, 100 kPa	0.3483
352.21 K, 1000 kPa	0.3507
362.73 K, 100 kPa	0.3194
362.74 K, 1000 kPa	0.3217
362.75 K, 5000 kPa	0.3331
362.76 K, 10000 kPa	0.3467
362.76 K, 15000 kPa	0.3616
362.77 K, 20000 kPa	0.3756
362.81 K, 25000 kPa	0.3915
362.82 K, 30000 kPa	0.405
372.69 K, 20000 kPa	0.348
372.69 K, 25000 kPa	0.3614
372.69 K, 30000 kPa	0.3752
372.7 K, 10000 kPa	0.3203
372.7 K, 15000 kPa	0.3341
372.71 K, 100 kPa	0.2936
372.71 K, 1000 kPa	0.296
372.71 K, 5000 kPa	0.3061
